Source: patent US7910337B2, “Method for identifying drug-sensitizing antisense DNA fragments and use thereof” (priority 2006, dated 2011)

Tests used:
[1] = system: S. aureus engineered with murB antisense
[2] = system: MetRS antisense clones; format: cell-based, B. anthracis
[3] = system: B. anthracis murB-2 antisense strain

Row | SMILES | IC50 shift (sensitivity), antibiotic panel [1] [fold] | difference in sensitivity with and without inducer [2] | IC50 shift [3] | IC50 shift [1]
1 | CO/N=C(\C(=O)N[C@@H]1C(=O)N2C(C(=O)[O-])=C(C[N+]3(C)CCCC3)CS[C@H]12)c1csc(N)n1 [cefepime] | ≥ 4 | – | – | –
2 | CO/N=C(\C(=O)N[C@@H]1C(=O)N2C(C(=O)O)=C(COC(C)=O)CS[C@H]12)c1csc(N)n1 [cefotaxime] | ≥ 4 | no difference in sensitivity | 343 | –
3 | Cc1nnc(SCC2=C(C(=O)O)N3C(=O)[C@@H](NC(=O)Cn4cnnn4)[C@H]3SC2)s1 [cefozolin] | ≥ 4 | – | – | –
4 | Cc1onc(-c2c(Cl)cccc2Cl)c1C(=O)N[C@@H]1C(=O)N2[C@@H]1SC(C)(C)[C@@H]2C(=O)O [dicloxacillin] | ≥ 4 | – | – | 5.8
5 | Cc1onc(-c2ccccc2)c1C(=O)N[C@@H]1C(=O)N2[C@@H]1SC(C)(C)[C@@H]2C(=O)O [oxacillin] | ≥ 4 | – | – | –
6 | CCN1CCN(C(=O)N[C@@H](C(=O)N[C@@H]2C(=O)N3[C@@H]2SC(C)(C)[C@@H]3C(=O)O)c2ccccc2)C(=O)C1=O [pipericillin] | ≥ 4 | – | – | –
7 | CO/N=C(\C(=O)N[C@@H]1C(=O)N2C(C(=O)O)=C(CSc3nc(=O)c(=O)[nH]n3C)CS[C@H]12)c1csc(N)n1 [ceftriaxone] | ≥ 4 | – | – | –
8 | CO[C@@]1(NC(=O)Cc2cccs2)C(=O)N2C(C(=O)O)=C(COC(N)=O)CS[C@@H]21 [cefoxitin] | ≥ 4 | – | – | 7.8
